Measurements as given in article PMC6661766, “Antimicrobial, antioxidant and cytotoxic evaluation of diazenyl chalcones along with insights to mechanism of interaction by molecular docking studies” (BMC Chemistry, 2019).
≈ marks a conversion by molar mass, not a printed value.

What was measured:
C. albicans = test: Antimicrobial serial tube dilution, MIC and MFC; format: cell-based, Candida albicans MTCC 227; settings: Candida albicans; for MIC: 48 h, read-out: C. albicans MIC; for MFC: read-out: C. albicans MFC
Procedure: (§1) The synthesized diazenyl chalcones (C18 to C27) and controls (dyes A and E, and chalcone) were assessed for their antimicrobial activity by estimation of MIC and MBC/MFC values. […] The stock solutions of the test compounds and standard drugs having a concentration of 1000 µg ml^−1 were prepared by dissolving the used compounds in DMSO. The nutrient broth/Sabouraud dextrose broth was used for the serial dilution of the test compounds and referenced drugs for bacterial and fungal cultures, respectively. […] The size of the final inoculum in each test tube was taken as 5 × 10^5 CFU ml^−1. The incubation of the test and standard compounds of varying concentrations was done for 24 h at 37 ± 2 °C (bacterial culture) and for 48 h at 37 ± 2 °C (C. albicans) and for 7 d at 25 ± 2 °C (A. fumigatus). The diazenyl chalcones (C18–C27), were further evaluated for their bactericidal/fungicidal activity by estimation of MBC/MFC values. […] For proper mixing of culture media, the plates were shaken gently followed by incubation at the predefined temperature and time as stated earlier, followed by the visual inspection of the plates for signs of microbial growth.

S. aureus = test: Antimicrobial serial tube dilution, MIC and MBC; format: cell-based, Staphylococcus aureus MTCC 2901; settings: Staphylococcus aureus; for MIC: 24 h, read-out: S. aureus MIC; for MBC: read-out: S. aureus MBC
Procedure: as §1

A. fumigatus = test: Antimicrobial serial tube dilution, MIC and MFC; format: cell-based, Aspergillus fumigatus MTCC 2584; settings: Aspergillus fumigatus; for MIC: 168 h, read-out: A. fumigatus MIC; for MFC: read-out: A. fumigatus MFC
Procedure: as §1

[1] = test system: A549 human lung cancer cell line; test: MTT cytotoxicity assay, A549; format: cell-based
Procedure: (§2) The cell lines employed in the investigation were purchased from the National Centre for Cell Sciences (NCCS), Pune, India. The cell lines were cultured in DMEM fortified with 10% FBS, L-glutamine, sodium bicarbonate, and solution of antibiotics (streptomycin 100 μg ml^−1 + penicillin-100 U ml^−1). The culture of cell lines was stored under 5% CO2 incubation at 37 °C.
(§3) The compounds showing maximum activity (antimicrobial and antioxidant potential) were screened for cytotoxicity against A549 and HEK cell lines using MTT assay. Initially, 96-well microculture plate was seeded with 1 × 10^4 cells in 100 µl/well DMEM/MEM, supplemented with 10% FBS followed by incubation at a temperature of 37 °C for a period of 24 h under 5% CO2 atmosphere. After that, the test compounds and camptothecin were added to the cells to achieve a concentration of 10, 25, 50 and 100 µg. MTT reagent (10 µl) of concentration of 5 mg ml^−1 added to all the wells after the duration of 48 h. The plate was incubated further for 4 h followed by careful removal of supernatant from each well. To dissolve the formazan crystals, 100 µl of DMSO was added, and the ELISA reader was used to check the absorbance at 570 nm wavelength. In order to calculate the IC50 concentration, the following equation, i.e. A = Bx + C, was used. In this case, A = 50, while the values B and C values were obtained from the survival curve plot. This study was carried out in duplicate.

E. coli = test: Antimicrobial serial tube dilution, MIC and MBC; format: cell-based, Escherichia coli MTCC 1652; settings: for MIC / MBC: Escherichia coli; for MIC: 24 h, read-out: E. coli MIC, 24 h at 37 ± 2 °C; for MBC: read-out: E. coli MBC
Procedure: as §1

B. subtilis = test: Antimicrobial serial tube dilution, MIC and MBC; format: cell-based, Bacillus subtilis MTCC 2063; settings: Bacillus subtilis; for MIC: 24 h, read-out: B. subtilis MIC; for MBC: read-out: B. subtilis MBC
Procedure: as §1

[2] = DPPH scavenging antioxidant assay
Procedure: The derivatives (C18–C27) were assessed for their antioxidant potential in the presence of the stable free radical DPPH using ascorbic acid as the standard compound [36, 37]. […] The total volume of 200 µl was used in each well for each concentration of the test and standard drug containing 0.004 µg DPPH. The assay was performed in triplicate at all concentrations of each sample and standard compound. DPPH solutions in methanol at the same concentration without test drugs were used as the control. Each concentration of the sample and standard has a different blank. To minimize evaporation, the plate was covered with the lid and wrapped in aluminium foil and kept in the dark place in order to protect the DPPH radical from degradation by light and left for 30 min. After 30 min of incubation, the plate was kept in ELISA reader to measure the absorbance values at 517 nm. The experiment was performed in triplicate. The antioxidant activity of each sample was then calculated as per cent inhibition of DPPH according to the following equation: %decolourationofDPPH=ControlAbs-SampleAbs×100/ControlAbs

B. cereus = test: Antimicrobial serial tube dilution, MIC and MBC; format: cell-based, Bacillus cereus MTCC 1305; settings: Bacillus cereus; for MIC: 24 h, read-out: B. cereus MIC; for MBC: read-out: B. cereus MBC
Procedure: as §1

[3] = test system: HEK human embryonic kidney cells; test: MTT cytotoxicity assay, HEK; format: cell-based; settings: 48 h
Procedure: as §2, §3

S. typhi = test: Antimicrobial serial tube dilution, MIC and MBC; format: cell-based, Salmonella typhi MTCC 3216; settings: Salmonella enterica, TYPHI; for MIC: 24 h, read-out: S. typhi MIC; for MBC: read-out: S. typhi MBC
Procedure: as §1

Row | Compound | MIC (C. albicans) | MFC (C. albicans) | MIC (S. aureus) | MBC (S. aureus) | melting point | MIC (A. fumigatus) | MFC (A. fumigatus) | MIC (E. coli) | MBC (E. coli) | MIC (B. subtilis) | MBC (B. subtilis) | IC50 DPPH [2] | % inhibition of DPPH ([2]; 1.56 µg ml^−1) | % inhibition of DPPH ([2]; 3.12 µg ml^−1) | % inhibition of DPPH ([2]; 6.25 µg ml^−1) | % inhibition of DPPH ([2]; 12.5 µg ml^−1) | % inhibition of DPPH ([2]; 25 µg ml^−1) | % inhibition of DPPH ([2]; 50 µg ml^−1) | % inhibition of DPPH ([2]; 100 µg ml^−1) | MIC (B. cereus) | further results
1 | O=Cc1ccc(/C=C\C(=O)c2cccc(N=Nc3cccc(Cl)c3Cl)c2O)cc1 [Compound C-25, 4-((1Z)-3-(3-((2,3-Dichlorophenyl)diazenyl)-2-hydroxyphenyl)-3-oxoprop-1-en-1-yl)benzaldehyde] | 31.2 µg/mL (≈ 73.5 µM) | 62.5 µg/mL (≈ 147 µM) | 62.5 µg/mL (≈ 147 µM) | 62.5 µg/mL (≈ 147 µM) | 96 to 98 °C | 62.5 µg/mL (≈ 147 µM) | 62.5 µg/mL (≈ 147 µM) | 62.5 µg/mL (≈ 147 µM) | 125 µg/mL (≈ 294 µM) | 15.6 µg/mL (≈ 36.7 µM) | 62.5 µg/mL (≈ 147 µM) | > 100 µg/mL | 9.71% | 10.38% | 11.36% | 13.56% | 14.91% | 15.67% | 20.34% | 125 µg/mL (≈ 294 µM) | Morphological changes in A549 cell line ([1]; C-25 at 50 and 25 µg ml^−1, Fig. 2): reduced the number and clumping of A549 cells to a significant extent; IC50 ([1]; Homo sapiens, A549, MTT, 48 h): 18 ± 1.34 µg/mL (≈ 42.3 µM); Cytotoxicity against A549 cell line in words ([1]; compared with camptothecin): comparable cytotoxicity to camptothecin; MBC (B. cereus): 125 µg/mL (≈ 294 µM); IC50 [3]: 270 ± 2.82 µg/mL (≈ 635 µM); MIC (S. typhi): 125 µg/mL (≈ 294 µM); MBC (S. typhi): 125 µg/mL (≈ 294 µM)
2 | O=C(/C=C/c1ccc(Cl)cc1Cl)c1ccc(O)c(N=Nc2cccc(Cl)c2Cl)c1 [Compound C-18, (2E)-3-(2,4-Dichlorophenyl)-1-(3-((2,3-dichlorophenyl)diazenyl)-4-hydroxyphenyl)prop-2-en-1-one] | 125 µg/mL (≈ 268 µM) | 125 µg/mL (≈ 268 µM) | 31.2 µg/mL (≈ 67 µM) | 125 µg/mL (≈ 268 µM) | 110 to 112 °C | 125 µg/mL (≈ 268 µM) | 125 µg/mL (≈ 268 µM) | 7.81 to 15.6 µg/mL (≈ 16.8 to 33.5 µM) | 62.5 µg/mL (≈ 134 µM) | 125 µg/mL (≈ 268 µM) | 125 µg/mL (≈ 268 µM) | > 100 µg/mL | 7.21% | 8.76% | 9.37% | 12.35% | 15.68% | 21.79% | 31.98% | 31.2 µg/mL (≈ 67 µM) | E. coli MIC (E. coli; 24 h at 37 ± 2 °C): 15.62 µg/mL; MBC (B. cereus): 125 µg/mL (≈ 268 µM); MIC (S. typhi): 31.2 µg/mL (≈ 67 µM); MBC (S. typhi): 125 µg/mL (≈ 268 µM)
3 | O=C(/C=C\c1ccccc1[N+](=O)[O-])c1cccc(N=Nc2cccc(Cl)c2Cl)c1O [Compound C-20, (2Z)-1-(3-((2,3-Dichlorophenyl)diazenyl)-2-hydroxyphenyl)-3-(2-nitrophenyl)prop-2-en-1-one] | 125 µg/mL (≈ 283 µM) | 250 µg/mL (≈ 565 µM) | 125 µg/mL (≈ 283 µM) | 125 µg/mL (≈ 283 µM) | 105 to 107 °C | 125 µg/mL (≈ 283 µM) | 125 µg/mL (≈ 283 µM) | 125 µg/mL (≈ 283 µM) | 250 µg/mL (≈ 565 µM) | 62.5 µg/mL (≈ 141 µM) | 125 µg/mL (≈ 283 µM) | > 100 µg/mL | 8.15% | 9.87% | 10.51% | 14.32% | 18.96% | 20.76% | 29.39% | 125 µg/mL (≈ 283 µM) | MBC (B. cereus): 125 µg/mL (≈ 283 µM); MIC (S. typhi): 125 µg/mL (≈ 283 µM); MBC (S. typhi): 125 µg/mL (≈ 283 µM)
4 | CC(=O)c1ccc(N=Nc2c(O)cccc2O)cc1 [Dye E, 1-(4-((2,6-Dihydroxyphenyl)diazenyl)phenyl)ethanone] | 125 µg/mL (≈ 488 µM) | 125 µg/mL (≈ 488 µM) | 31.2 µg/mL (≈ 122 µM) | 62.5 µg/mL (≈ 244 µM) | 240 to 242 °C | 125 µg/mL (≈ 488 µM) | 125 µg/mL (≈ 488 µM) | 31.2 µg/mL (≈ 122 µM) | 31.2 µg/mL (≈ 122 µM) | 62.5 µg/mL (≈ 244 µM) | 125 µg/mL (≈ 488 µM) | 69.40 µg/mL (≈ 271 µM) | 7.89% | 12.68% | 19.80% | 26.18% | 34.89% | 47.56% | 56.78% | 62.5 µg/mL (≈ 244 µM) | MBC (B. cereus): 62.5 µg/mL (≈ 244 µM); MIC (S. typhi): 125 µg/mL (≈ 488 µM); MBC (S. typhi): 125 µg/mL (≈ 488 µM)
5 | CC(=O)c1ccc(O)c(N=Nc2cccc(Cl)c2Cl)c1 [Dye A, 1-(3-((2,3-Dichlorophenyl)diazenyl)-4-hydroxyphenyl)ethanone] | 62.5 µg/mL (≈ 202 µM) | 62.5 µg/mL (≈ 202 µM) | 125 µg/mL (≈ 404 µM) | 125 µg/mL (≈ 404 µM) | 140 to 142 °C | 125 µg/mL (≈ 404 µM) | 125 µg/mL (≈ 404 µM) | 15.6 µg/mL (≈ 50.5 µM) | 31.2 µg/mL (≈ 101 µM) | 125 µg/mL (≈ 404 µM) | 125 µg/mL (≈ 404 µM) | > 100 µg/mL | 4.65% | 9.23% | 11.97% | 17.67% | 22.18% | 29.87% | 35.45% | 31.2 µg/mL (≈ 101 µM) | MBC (B. cereus): 31.2 µg/mL (≈ 101 µM); MIC (S. typhi): 62.5 µg/mL (≈ 202 µM); MBC (S. typhi): 62.5 µg/mL (≈ 202 µM)
